Data as given in PubChem BioAssay (NCI).
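The compound was tested at five concentrations on cells cultured in 96-well plates, with a 48-hour exposure period. At the GI50, growth is halved. TGI marks complete inhibition of growth.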

Experiments:
Assay in all cases: growth of human tumour cells (NCI), 48 h
786-0 renal = system: 786-0 renal
MALME-3M melanoma = system: MALME-3M melanoma
T-47D breast = system: T-47D breast
UO-31 renal = system: UO-31 renal
UACC-257 melanoma = system: UACC-257 melanoma
MCF7 breast = system: MCF7 breast
NCI-H226 lung = system: NCI-H226 lung
M14 melanoma = system: M14 melanoma
SR leukemia = system: SR leukemia
OVCAR-5 ovarian = system: OVCAR-5 ovarian
HT29 colon = system: HT29 colon
SN12C renal = system: SN12C renal
EKVX NSCLC = system: EKVX NSCLC
COLO 205 colon = system: COLO 205 colon
NCI-H522 lung = system: NCI-H522 lung
SK-MEL-28 melanoma = system: SK-MEL-28 melanoma
CAKI-1 renal = system: CAKI-1 renal
U251 CNS = system: U251 CNS
A498 renal = system: A498 renal
CCRF-CEM leukemia = system: CCRF-CEM leukemia
HOP-62 NSCLC = system: HOP-62 NSCLC
RPMI-8226 leukemia = system: RPMI-8226 leukemia
HCT-116 colon = system: HCT-116 colon
ACHN renal = system: ACHN renal
DU-145 prostate = system: DU-145 prostate
HCT-15 colon = system: HCT-15 colon
UACC-62 melanoma = system: UACC-62 melanoma
PC-3 prostate = system: PC-3 prostate
MOLT-4 leukemia = system: MOLT-4 leukemia
SK-MEL-5 melanoma = system: SK-MEL-5 melanoma
SF-268 CNS = system: SF-268 CNS
HOP-92 NSCLC = system: HOP-92 NSCLC
SF-295 CNS = system: SF-295 CNS
K-562 leukemia = system: K-562 leukemia
BT-549 breast = system: BT-549 breast
SW-620 colon = system: SW-620 colon
SNB-19 CNS = system: SNB-19 CNS
RXF 393 renal = system: RXF 393 renal
SK-MEL-2 melanoma = system: SK-MEL-2 melanoma
SF-539 CNS = system: SF-539 CNS
SK-OV-3 ovarian = system: SK-OV-3 ovarian
MDA-MB-231 breast = system: MDA-MB-231 breast
SNB-75 CNS = system: SNB-75 CNS
HS 578T breast = system: HS 578T breast
HL-60(TB) leukemia = system: HL-60(TB) leukemia
OVCAR-8 ovarian = system: OVCAR-8 ovarian
HCC-2998 colon = system: HCC-2998 colon
OVCAR-3 ovarian = system: OVCAR-3 ovarian
OVCAR-4 ovarian = system: OVCAR-4 ovarian
NCI-H23 lung = system: NCI-H23 lung
LOX IMVI melanoma = system: LOX IMVI melanoma
NCI/ADR-RES ovarian = system: NCI/ADR-RES ovarian
A549 NSCLC = system: A549 NSCLC
MDA-MB-435 = system: MDA-MB-435
IGROV1 ovarian = system: IGROV1 ovarian
NCI-H460 lung = system: NCI-H460 lung
KM12 colon = system: KM12 colon
TK-10 renal = system: TK-10 renal

Structure (SMILES): O=C1C=CC(=O)N1c1ccc2ccccc2c1
- GI50 (786-0 renal): 17.2 µM
- TGI (786-0 renal): 31.6 µM
- GI50 (MALME-3M melanoma): 2.98 µM
- TGI (MALME-3M melanoma): 8.19 µM
- GI50 (T-47D breast): 3.73 µM
- TGI (T-47D breast): 14.7 µM
- GI50 (UO-31 renal): 12.4 µM
- TGI (UO-31 renal): 25.1 µM
- GI50 (UACC-257 melanoma): 10.5 µM
- TGI (UACC-257 melanoma): 22.7 µM
- GI50 (MCF7 breast): 16.6 µM
- TGI (MCF7 breast): 41.4 µM
- GI50 (NCI-H226 lung): 16.8 µM
- TGI (NCI-H226 lung): 33.3 µM
- GI50 (M14 melanoma): 14.5 µM
- TGI (M14 melanoma): 28.4 µM
- GI50 (SR leukemia): 2.6 µM
- TGI (SR leukemia): 7.33 µM
- GI50 (OVCAR-5 ovarian): 17.9 µM
- TGI (OVCAR-5 ovarian): 34 µM
- GI50 (HT29 colon): 4.94 µM
- TGI (HT29 colon): 27.8 µM
- GI50 (SN12C renal): 16.6 µM
- TGI (SN12C renal): 34.1 µM
- GI50 (EKVX NSCLC): 17.9 µM
- TGI (EKVX NSCLC): 39.6 µM
- GI50 (COLO 205 colon): 2.01 µM
- TGI (COLO 205 colon): 4.22 µM
- GI50 (NCI-H522 lung): 1.74 µM
- TGI (NCI-H522 lung): 3.42 µM
- GI50 (SK-MEL-28 melanoma): 16.8 µM
- TGI (SK-MEL-28 melanoma): 34 µM
- GI50 (CAKI-1 renal): 4.65 µM
- TGI (CAKI-1 renal): 17.8 µM
- GI50 (U251 CNS): 17.8 µM
- TGI (U251 CNS): 33.8 µM
- GI50 (A498 renal): 12.7 µM
- TGI (A498 renal): 27.3 µM
- GI50 (CCRF-CEM leukemia): 2.09 µM
- TGI (CCRF-CEM leukemia): 7.94 µM
- GI50 (HOP-62 NSCLC): 16.2 µM
- TGI (HOP-62 NSCLC): 31.1 µM
- GI50 (RPMI-8226 leukemia): 2 µM
- TGI (RPMI-8226 leukemia): 4.97 µM
- GI50 (HCT-116 colon): 3.93 µM
- TGI (HCT-116 colon): 12.4 µM
- GI50 (ACHN renal): 4.66 µM
- TGI (ACHN renal): 15.4 µM
- GI50 (DU-145 prostate): 12.3 µM
- TGI (DU-145 prostate): 25.6 µM
- GI50 (HCT-15 colon): 16.5 µM
- TGI (HCT-15 colon): 33.1 µM
- GI50 (UACC-62 melanoma): 16.1 µM
- TGI (UACC-62 melanoma): 29.8 µM
- GI50 (PC-3 prostate): 18.1 µM
- TGI (PC-3 prostate): 37.8 µM
- GI50 (MOLT-4 leukemia): 4.49 µM
- TGI (MOLT-4 leukemia): 34.9 µM
- GI50 (SK-MEL-5 melanoma): 16.4 µM
- TGI (SK-MEL-5 melanoma): 30.4 µM
- GI50 (SF-268 CNS): 14.5 µM
- TGI (SF-268 CNS): 28.3 µM
- GI50 (HOP-92 NSCLC): 7.59 µM
- TGI (HOP-92 NSCLC): 22.2 µM
- GI50 (SF-295 CNS): > 100 µM
- TGI (SF-295 CNS): > 100 µM
- GI50 (K-562 leukemia): 3.45 µM
- TGI (K-562 leukemia): > 100 µM
- GI50 (BT-549 breast): 14.3 µM
- TGI (BT-549 breast): 27.8 µM
- GI50 (SW-620 colon): 1.79 µM
- TGI (SW-620 colon): 3.62 µM
- GI50 (SNB-19 CNS): 38.4 µM
- TGI (SNB-19 CNS): > 100 µM
- GI50 (RXF 393 renal): 3.98 µM
- TGI (RXF 393 renal): 12.9 µM
- GI50 (SK-MEL-2 melanoma): 17.9 µM
- TGI (SK-MEL-2 melanoma): 35.3 µM
- GI50 (SF-539 CNS): 17.7 µM
- TGI (SF-539 CNS): 33.9 µM
- GI50 (SK-OV-3 ovarian): 27.4 µM
- TGI (SK-OV-3 ovarian): 78.5 µM
- GI50 (MDA-MB-231 breast): 16.1 µM
- TGI (MDA-MB-231 breast): 33 µM
- GI50 (SNB-75 CNS): 16.6 µM
- TGI (SNB-75 CNS): 38.4 µM
- GI50 (HS 578T breast): 14.4 µM
- TGI (HS 578T breast): 53.4 µM
- GI50 (HL-60(TB) leukemia): 7.74 µM
- TGI (HL-60(TB) leukemia): 33.5 µM
- GI50 (OVCAR-8 ovarian): 19.2 µM
- TGI (OVCAR-8 ovarian): 42.3 µM
- GI50 (HCC-2998 colon): 17.8 µM
- TGI (HCC-2998 colon): 32.8 µM
- GI50 (OVCAR-3 ovarian): 3.23 µM
- TGI (OVCAR-3 ovarian): 8.75 µM
- GI50 (OVCAR-4 ovarian): 8.92 µM
- TGI (OVCAR-4 ovarian): 34.1 µM
- GI50 (NCI-H23 lung): 17.1 µM
- TGI (NCI-H23 lung): 37.2 µM
- GI50 (LOX IMVI melanoma): 16.4 µM
- TGI (LOX IMVI melanoma): 31.3 µM
- GI50 (NCI/ADR-RES ovarian): 21.5 µM
- TGI (NCI/ADR-RES ovarian): 55.7 µM
- GI50 (A549 NSCLC): 20.3 µM
- TGI (A549 NSCLC): 43.2 µM
- GI50 (MDA-MB-435): 16.9 µM
- TGI (MDA-MB-435): 32.2 µM
- GI50 (IGROV1 ovarian): 16.6 µM
- TGI (IGROV1 ovarian): 52 µM
- GI50 (NCI-H460 lung): 17.5 µM
- TGI (NCI-H460 lung): 37.9 µM
- GI50 (KM12 colon): 24.1 µM
- TGI (KM12 colon): 71 µM
- GI50 (TK-10 renal): 6.4 µM
- TGI (TK-10 renal): 19.1 µM

Structure (SMILES): c1ccc2c(c1)n1c(N3CCCC3)[n+]3ccccc3c1c1c3cccc[n+]3c(N3CCCC3)n21
- TGI (786-0 renal): > 100 µM
- TGI (MALME-3M melanoma): > 100 µM
- TGI (T-47D breast): > 100 µM
- TGI (UACC-257 melanoma): > 100 µM
- TGI (MCF7 breast): > 100 µM
- TGI (NCI-H226 lung): > 100 µM
- TGI (M14 melanoma): > 100 µM
- TGI (SR leukemia): > 100 µM
- TGI (OVCAR-5 ovarian): > 100 µM
- TGI (SN12C renal): > 100 µM
- TGI (EKVX NSCLC): > 100 µM
- TGI (COLO 205 colon): 74.9 µM
- TGI (NCI-H522 lung): > 100 µM
- TGI (SK-MEL-28 melanoma): > 100 µM
- TGI (CAKI-1 renal): > 100 µM
- TGI (U251 CNS): > 100 µM
- TGI (A498 renal): > 100 µM
- TGI (CCRF-CEM leukemia): > 100 µM
- TGI (RPMI-8226 leukemia): > 100 µM
- TGI (HCT-116 colon): > 100 µM
- TGI (ACHN renal): > 100 µM
- TGI (DU-145 prostate): > 100 µM
- TGI (HCT-15 colon): > 100 µM
- TGI (UACC-62 melanoma): > 100 µM
- TGI (PC-3 prostate): > 100 µM
- TGI (MOLT-4 leukemia): > 100 µM
- TGI (SK-MEL-5 melanoma): 65.8 µM
- TGI (SF-268 CNS): 45.2 µM
- TGI (HOP-92 NSCLC): > 100 µM
- TGI (SF-295 CNS): > 100 µM
- TGI (K-562 leukemia): > 100 µM
- TGI (BT-549 breast): > 100 µM
- TGI (SW-620 colon): > 100 µM
- TGI (SNB-19 CNS): > 100 µM
- TGI (RXF 393 renal): > 100 µM
- TGI (SK-MEL-2 melanoma): > 100 µM
- TGI (SF-539 CNS): > 100 µM
- TGI (MDA-MB-231 breast): > 100 µM
- TGI (SNB-75 CNS): 68.5 µM
- TGI (HS 578T breast): > 100 µM
- TGI (HL-60(TB) leukemia): > 100 µM
- TGI (OVCAR-8 ovarian): 93.3 µM
- TGI (HCC-2998 colon): > 100 µM
- TGI (OVCAR-3 ovarian): > 100 µM
- TGI (OVCAR-4 ovarian): > 100 µM
- TGI (NCI-H23 lung): > 100 µM
- TGI (LOX IMVI melanoma): > 100 µM
- TGI (NCI/ADR-RES ovarian): > 100 µM
- TGI (A549 NSCLC): > 100 µM
- TGI (MDA-MB-435): > 100 µM
- TGI (IGROV1 ovarian): > 100 µM
- TGI (NCI-H460 lung): > 100 µM
- TGI (KM12 colon): > 100 µM
- TGI (TK-10 renal): > 100 µM
